According to the supplement of paper PMC10307832:

Key:
Experiment in all cases: relative viability (nuclei count vs DMSO), 5 days (fraction); higher = more cells survive
Alisertib + Decitabine = compound: COc1cc(Nc2ncc3c(n2)-c2ccc(Cl)cc2C(c2c(F)cccc2OC)=NC3)ccc1C(=O)O [Alisertib] + Nc1ncn([C@H]2C[C@H](O)[C@@H](CO)O2)c(=O)n1 [Decitabine] (partner 2 µM)
Outline: (§1)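 Values are medians from duplicate plates. Each reflects relative viability, defined as the nuclei count of treated wells over that of vehicle wells. Lung cancer cell lines in 1536-well plates were pin-tool dosed one day after seeding with one drug alone or with a fixed anchor-drug dose plus five library-drug doses (not always all listed) in √10 steps, then fixed, stained and imaged at 4× after 5 days.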

Alisertib + Foretinib = compound: COc1cc(Nc2ncc3c(n2)-c2ccc(Cl)cc2C(c2c(F)cccc2OC)=NC3)ccc1C(=O)O [Alisertib] + COc1cc2c(Oc3ccc(NC(=O)C4(C(=O)Nc5ccc(F)cc5)CC4)cc3F)ccnc2cc1OCCCN1CCOCC1 [Foretinib] (partner 0.25 µM)
Outline: as §1

Alisertib + Dasatinib = compound: COc1cc(Nc2ncc3c(n2)-c2ccc(Cl)cc2C(c2c(F)cccc2OC)=NC3)ccc1C(=O)O [Alisertib] + Cc1nc(Nc2ncc(C(=O)Nc3c(C)cccc3Cl)s2)cc(N2CCN(CCO)CC2)n1 [Dasatinib] (partner 0.075 µM)
Outline: as §1

Alisertib + Luminespib = compound: COc1cc(Nc2ncc3c(n2)-c2ccc(Cl)cc2C(c2c(F)cccc2OC)=NC3)ccc1C(=O)O [Alisertib] + CCNC(=O)c1noc(-c2cc(C(C)C)c(O)cc2O)c1-c1ccc(CN2CCOCC2)cc1 [Luminespib] (partner 0.01 µM)
Outline: as §1

| Cell Line | relative viability (Alisertib + Decitabine; first compound 0.005 µM) | relative viability (Alisertib + Decitabine; first compound 0.01581 µM) | relative viability (Alisertib + Decitabine; first compound 0.05 µM) | relative viability (Alisertib + Decitabine; first compound 0.1581 µM) | relative viability (Alisertib + Decitabine; first compound 0.5 µM) | relative viability (Alisertib + Foretinib; first compound 0.005 µM) | relative viability (Alisertib + Foretinib; first compound 0.01581 µM) | relative viability (Alisertib + Foretinib; first compound 0.05 µM) | relative viability (Alisertib + Foretinib; first compound 0.1581 µM) | relative viability (Alisertib + Foretinib; first compound 0.5 µM) | relative viability (Alisertib + Dasatinib; first compound 0.005 µM) | relative viability (Alisertib + Dasatinib; first compound 0.01581 µM) | relative viability (Alisertib + Dasatinib; first compound 0.05 µM) | relative viability (Alisertib + Dasatinib; first compound 0.1581 µM) | relative viability (Alisertib + Dasatinib; first compound 0.5 µM) | relative viability (Alisertib + Luminespib; first compound 0.005 µM) | relative viability (Alisertib + Luminespib; first compound 0.01581 µM) | relative viability (Alisertib + Luminespib; first compound 0.05 µM) | relative viability (Alisertib + Luminespib; first compound 0.1581 µM) | relative viability (Alisertib + Luminespib; first compound 0.5 µM) |
| --- | --- | --- | --- | --- | --- | --- | --- | --- | --- | --- | --- | --- | --- | --- | --- | --- | --- | --- | --- | --- |
| HCC-366 | 0.29 | 0.16 | 0.0371 | 0.0279 | 0.0431 | 0.975 | 0.156 | 0.035 | 0.054 | 0.055 | 0.674 | 0.353 | 0.0282 | 0.0222 | 0.0468 |  |  |  |  |  |
| HCC-827 | 0.373 | 0.303 | 0.246 | 0.219 | 0.24 | 1.05 | 0.726 | 0.333 | 0.276 | 0.237 | 0.279 | 0.409 | 0.246 | 0.194 | 0.236 | 0.48 | 0.598 | 0.204 | 0.209 | 0.234 |
| HOP-62 | 0.17 | 0.217 | 0.205 | 0.136 | 0.2 | 1.08 | 0.876 | 0.285 | 0.256 | 0.205 | 0.537 | 0.688 | 0.433 | 0.185 | 0.154 | 0.845 | 0.808 | 0.288 | 0.259 | 0.153 |
| IA-LM |  |  |  |  |  | 1.11 | 1.09 | 0.737 | 0.214 | 0.0846 |  |  |  |  |  |  |  |  |  |  |
| LC-2-ad | 0.736 | 0.673 | 0.442 | 0.263 | 0.23 | 0.803 | 0.597 | 0.503 | 0.351 | 0.285 | 0.315 | 0.33 | 0.263 | 0.202 | 0.133 | 0.892 | 0.435 | 0.39 | 0.392 | 0.32 |
| LCLC-97TM1 | 0.235 | 0.168 | 0.114 | 0.115 | 0.144 | 0.91 | 0.707 | 0.379 | 0.253 | 0.182 | 0.773 | 0.712 | 0.709 | 0.192 | 0.173 | 0.787 | 0.601 | 0.318 | 0.177 | 0.12 |
| LCLC-103H | 0.72 | 0.714 | 0.355 | 0.315 | 0.431 | 0.759 | 0.544 | 0.283 | 0.272 | 0.236 | 0.455 | 0.509 | 0.423 | 0.26 | 0.158 | 0.949 | 0.883 | 0.278 | 0.311 | 0.269 |
| LK-2 | 0.294 | 0.321 | 0.165 | 0.143 | 0.127 | 0.955 | 0.979 | 0.601 | 0.245 | 0.189 | 0.353 | 0.267 | 0.212 | 0.192 | 0.153 | 0.19 | 0.165 | 0.184 | 0.18 | 0.187 |
| LOU-NH91 | 0.799 | 0.77 | 0.651 | 0.524 | 0.45 | 0.921 | 0.922 | 0.655 | 0.444 | 0.366 | 0.526 | 0.624 | 0.477 | 0.351 | 0.296 | 0.334 | 0.311 | 0.297 | 0.293 | 0.291 |
| LU99A | 0.856 | 0.85 | 0.311 | 0.27 | 0.186 | 0.741 | 0.762 | 0.361 | 0.27 | 0.205 | 0.502 | 0.513 | 0.323 | 0.183 | 0.17 | 0.245 | 0.3 | 0.219 | 0.201 | 0.177 |
| LXF-289 | 0.325 | 0.352 | 0.183 | 0.154 | 0.146 | 0.858 | 0.675 | 0.218 | 0.187 | 0.157 | 0.206 | 0.256 | 0.0522 | 0.0513 | 0.0398 | 0.455 | 0.325 | 0.16 | 0.0792 | 0.142 |
| NCI-H23 | 0.3 | 0.184 | 0.184 | 0.2 | 0.178 | 0.759 | 0.452 | 0.269 | 0.235 | 0.211 | 0.67 | 0.661 | 0.301 | 0.173 | 0.198 | 0.219 | 0.236 | 0.204 | 0.224 | 0.214 |
| NCI-H322M | 0.714 | 0.654 | 0.482 | 0.425 | 0.48 | 0.896 | 0.925 | 0.649 | 0.402 | 0.397 | 0.233 | 0.23 | 0.26 | 0.184 | 0.206 | 0.84 | 0.671 | 0.475 | 0.37 | 0.452 |
| NCI-H522 | 0.69 | 0.686 | 0.558 | 0.443 | 0.408 |  |  |  |  |  | 0.812 | 0.91 | 0.67 | 0.323 | 0.434 | 1.2 | 1 | 0.493 | 0.331 | 0.426 |
| NCI-H1299 |  |  |  |  |  | 1.05 | 1.05 | 0.665 | 0.333 | 0.192 |  |  |  |  |  |  |  |  |  |  |
| NCI-H1563 |  |  |  |  |  | 0.908 | 0.833 | 0.846 | 0.818 | 0.607 | 0.441 | 0.544 | 0.442 | 0.414 | 0.387 | 0.509 | 0.54 | 0.483 | 0.295 | 0.413 |
| NCI-H1648 |  | 0.478 | 0.405 | 0.279 | 0.247 |  |  |  |  |  |  |  |  |  |  |  |  |  |  |  |
| NCI-H1703 |  |  |  |  |  | 0.313 | 0.379 | 0.29 | 0.248 | 0.201 |  |  |  |  |  |  |  |  |  |  |
| NCI-H1792 | 0.575 | 0.496 | 0.213 | 0.132 | 0.0838 |  |  |  |  |  | 0.727 | 0.732 | 0.413 | 0.252 | 0.162 | 0.481 | 0.533 | 0.225 | 0.195 | 0.17 |
| NCI-H2228 |  |  |  |  |  | 0.734 | 0.642 | 0.493 | 0.0956 | 0.114 | 0.414 | 0.416 | 0.248 | 0.0768 | 0.1 | 0.111 | 0.117 | 0.112 | 0.144 | 0.186 |
